From US10759786B2, “1-tetrahydropyranylcarbonyl-2,3-dihydro-1H-indole compounds for treating cancer” (Eli Lilly and Company, priority 2016, dated 2020)

Legend:
Colon26 tumors = experiment: Mouse Syngeneic Colon26 Model; format: in vivo; conditions: for changes in tumor volume (% T/C) / reduction in body weight compared to baseline: day 20
Procedure: Grow the mouse BALB/c-derived Colon26 colon cancer cell line in RPMI 1640 medium supplemented with 10 mM HEPES, […] sodium pyruvate, and 10% fetal bovine serum. Harvest sub-confluent cells with trypsin and rinse twice with complete growth medium lacking serum. Initiate subcutaneous tumors by injecting 1×10^6 cells resuspended in HBSS in the rear flank of immune-competent BALB/c mice (Envigo, Indianapolis, Ind.). Six days after tumor implantation, randomize animals based on body weight and place into their respective treatment groups using the number of animals per group as indicated.
(§1) Capture tumor size and body weight using Study Director. Estimate tumor volume (V) by using the formula: V=0.536×L×W^2 where L=larger measured diameter and W=smaller of the perpendicular diameter. Transform the tumor volume data to a log scale to equalize variance across time and treatment groups. Analyze the log volume data with a two-way repeated measures analysis of variance by time and treatment using the MIXED procedures in SAS software (Version 9.2). The correlation model for the repeated measures is Spatial Power. Compare treated groups to the control group at each time point. Use the MIXED procedure also separately for each treatment group to calculate adjusted means and standard errors at each time point. Both analyses account for the autocorrelation within each animal and for the loss of data that occurs when animals with large tumors are removed from the study early. Calculate relative changes in tumor volume (% T/C) using the tumor volume measurements taken nearest to the last day of dosing with Example 1A, using the formula % T/C=100×ΔT/ΔC, where T=mean tumor volume of the compound treated group, ΔT=mean tumor volume of the compound treated group minus the mean tumor volume on the baseline day, C=mean tumor volume of the control (vehicle) group, and ΔC=mean tumor volume of the control group minus the mean tumor volume on the baseline day. If ΔT<0, then a tumor regression value is calculated instead of % T/C whereby % Regression=100×ΔT/Tinitial such that Tinital=mean tumor volume on the baseline day.
(§2) Assess antitumor efficacy of Example 1A and LY3300054 alone, or in combination by measuring tumor volume by three dimensional caliper measurements twice a week during the course of the study. Measure body weight twice weekly during the course of the study, as a general indicator of tolerability.
(§3) Formulations for Example 1A and LY3300054: Formulate Example 1A on a weekly basis in 1% HEC/0.25% Tween 80/0.05% Antifoam and store at 4° C. Solublize LY3300054 in phosphate buffered saline and store at 4° C.
Treat female BALB/c mice (n=10) bearing Colon26 tumors with Example 1A twice daily for 21 days by oral gavage at doses of 10, 50, and 100 mg/kg. Start administration of Example 1A six days after tumor implantation, and monitor tumor growth and body weight twice a week for the duration of the treatment period.

IDO1 = biological target: T1, IDO1 (Homo sapiens, UniProt P14902); experiment: In Vivo Target Inhibition Assay (SKOV3X tumors); conditions: mouse, 12 hours after dosing, SKOV3X tumor-bearing mice, read-out: inhibition of kynurenine in tumor
T1 construct: an ovarian cancer cell line that intrinsically expresses IDO1; endogenous in cells; host or cells: SKOV3 (ATCC HTB-77) in culture; SKOV3X (Indiana University Research and Technology Center) as intraperitoneal tumors in athymic nude mice
T1 sequence (P14902 whole entry): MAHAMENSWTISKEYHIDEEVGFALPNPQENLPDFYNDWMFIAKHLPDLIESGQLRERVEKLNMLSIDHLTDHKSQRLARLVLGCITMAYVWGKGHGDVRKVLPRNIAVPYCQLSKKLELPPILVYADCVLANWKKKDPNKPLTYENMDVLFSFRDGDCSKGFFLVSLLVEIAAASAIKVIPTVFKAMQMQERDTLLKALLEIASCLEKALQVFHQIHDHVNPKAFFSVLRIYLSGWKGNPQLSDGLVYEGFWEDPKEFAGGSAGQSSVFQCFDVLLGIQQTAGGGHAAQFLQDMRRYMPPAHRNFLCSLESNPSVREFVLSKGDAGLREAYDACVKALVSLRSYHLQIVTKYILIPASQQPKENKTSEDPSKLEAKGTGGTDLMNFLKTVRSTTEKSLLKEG
Source text: The purpose of this assay is to evaluate the inhibition of kynurenine production and tryptophan depletion in cancer cells in vivo. SKOV3X (Indiana University Research and Technology Center), an ovarian cancer cell line, intrinsically expresses IDO1 and readily forms tumors in the peritoneal cavity of Athymic Nude-Foxn1^nu mice (Harlan). As a consequence of IDO1 expression, SKOV3X tumors locally deplete tryptophan with the concomitant production of high levels of kynurenine in the tumor microenvironment. The purpose of this assay is to measure the ability of test compounds to inhibit IDO1 evidenced by the clear reduction in kynurenine levels in the tumor.
Culture SKOV3X in McCoys 5A media (Gibco, Cat #16600-082) supplemented with non-essential amino acids (Gibco, Cat #11140-050), 1 mM sodium pyruvate (Gibco, Cat #1360-070) and 10% FBS and incubate at 37° C. in 5% CO2. Trypsinize and isolate cells from culture and resuspend cells in Hank's balanced salt solution (HBSS). Implant 2×10^6 SKOV3X cells into the intraperitoneal cavity of each Athymic Nude-Foxn1^nu mouse (Harlan). Approximately three weeks post-implantation, palpate animals to ensure tumor formation and randomize tumor-bearing mice into vehicle control and compound treatment groups. Administer compound formulated in vehicle containing 1% hydroxyethylcellulose (HEC) and 0.025% TWEEN® 80 and 0.05% Antifoam or vehicle alone by oral gavage. Generate time-course inhibition profile by dosing tumor-bearing animals with a single dose and collect plasma, liver, and tumor samples at 2, 4, 8, 12, and 24 hours post dose. Collect blood into EDTA-containing blood collection tubes (Greiner bio-one, Cat #450474) and centrifuge at 2365×g, isolate plasma, and freeze at −80° C. Isolate liver and tumor fragments, record weights and flash freeze and store at −80° C.
Prepare calibration standards for L-kynurenine and L-tryptophan by first generating stripped matrices, which are plasma and tissue homogenates depleted of L-kynurenine and L-tryptophan by dialysis. […]

SKOV3 cells = experiment: Cell viability in SKOV3 cells (CELLTITER-GLO); format: cell-based
Procedure: The purpose of this assay is to evaluate the inhibition of the production of kynurenine, N-formyl-kynurenine and the depletion of tryptophan in IDO1 expressing cancer cells and assess whether compounds are overtly toxic to these cells. Exemplary compounds are tested for the inhibition of IDO1 activity in SKOV3 (ATCC, Cat # HTB-77), an ovarian cancer cell line that intrinsically expresses IDO1. Due to IDO1 expression, SKOV3 cells degrade tryptophan with the concomitant production of kynurenine and compounds are tested for their ability to inhibit the production of kynurenine, N-formyl-kynurenine and the depletion of tryptophan. Optionally, overt toxicity of compounds can be assessed by monitoring cell viability.
Plate SKOV3 cells, an IDO1-expressing ovarian cancer cell line, at 20,000 cells per well in 100 μL of McCoys 5A media (Gibco, Cat #16600-082) supplemented with non-essential amino acids (Gibco, Cat #11140-050), 1 mM sodium pyruvate (Gibco, Cat #11360-070), and 10% fetal bovine serum, complete media, in a 96 well tissue culture plate (BD Biosciences). Then, incubate cells for 16 hours in a 37° C. incubator with 5% CO2. […] Optionally, return original plate(s) to the incubator for an additional 24 hours and measure the viability of cells by adding an equal volume of CELLTITER-GLO® (Promega) and measure luminescence in an PERKIN ELMER® EnVision plate reader.

L55 tumors = experiment: L55 Humanized Tumor Model with hPBMC challenge; format: in vivo; conditions: for tolerability (body weight): with or without hPBMCs, over the course of the study
Source text: Grow the human NSCLC cell line, L55, in RPMI 1640 medium supplemented with 10% fetal bovine serum. Harvest sub-confluent cells with trypsin and rinse twice with growth medium lacking serum. Initiate the growth of subcutaneous tumors by injecting 5×10^6 in a 1:1 mixture of HBSS and MATRIGEL® (BD Biosciences, Franklin Lakes, N.J.) in the rear flank of NOD.Cg-Prkdc^scidIl2rg^tm1Wjl/SzJ mice more commonly known as NOD scid gamma chain knockout mice (NSG) mice (The Jackson Laboratory, Bar Harbour, Me.), which lack T cells, B cells, NK cells, and are deficient in cytokine signaling. When the mean tumor volume reaches approximately 200-300 mm^3, randomize the animals by tumor size and body weight and place into their respective treatment groups as indicated. After randomization, challenge tumor-bearing mice with PBS alone (no PBMCs) or with PBS containing 1×10^7 human PBMCs into the tail vein of recipients.
as §1, §2, §3
The L55 NCLC human cancer cell line is intrinsically resistant to the allo-response associated with the injection of hPBMCs. The goal of these studies is to assess the ability of compounds to potentiate the allo response allowing human T cells to target and restrict the growth of a human L55 tumors in a mouse that lacks an adaptive immune system (NSG mice). […]

[1] = 10 mg/kg twice daily oral gavage
[2] = 50 mg/kg twice daily oral gavage
[3] = 100 mg/kg twice daily oral gavage

Compound | changes in tumor volume (% T/C) (Colon26 tumors; [1]) | reduction in body weight compared to baseline (Colon26 tumors; [1]) | changes in tumor volume (% T/C) (Colon26 tumors; [2]) | reduction in body weight compared to baseline (Colon26 tumors; [2]) | changes in tumor volume (% T/C) (Colon26 tumors; [3]) | reduction in body weight compared to baseline (Colon26 tumors; [3]) | tolerability (body weight changes) (Colon26 tumors; 10, 50 and 100 mg/kg twice daily for 21 days, compared to vehicle-treated mice) | inhibition at 5 mg/kg (IDO1; 5 mg/kg single oral dose) | inhibition at 25 mg/kg (IDO1; 25 mg/kg single oral dose) | inhibition at 75 mg/kg (IDO1; 75 mg/kg single oral dose) | concentration up to which cell proliferation is not inhibited (SKOV3 cells) | % T/C (L55 tumors; 75 mg/kg twice daily oral for 21 days, presence of hPBMCs, day 41, vs vehicle control lacking hPBMCs) | tumor growth inhibition (L55 tumors; 75 mg/kg twice daily oral, absence of hPBMCs, compared to vehicle alone without PBMCs) | tolerability (body weight) (L55 tumors; Example 1A 75 mg/kg twice daily) | change in tumor volume (% T/C) (L55 tumors; 10 mg/kg intraperitoneal once a week for 4 weeks, hPBMCs, day 37, vs vehicle alone lacking PBMCs) | tolerability (body weight) (L55 tumors; LY3300054 10 mg/kg once a week)
C[C@@H](NC(=O)c1ccc(F)cc1)c1ccc2c(c1)CCN2C(=O)C1CCOCC1 (single isomer, unassigned) [Example 1A] | 17.5% | 2.5% | 31.2% | 8% | 62.6% | 2.5% | no significant tolerability issues | 37% | 59% | 79% | ≥ 10 µM | 47.6% | did not result in significant tumor growth inhibition | No significant tolerability issues | – | –
LY3300054: an antibody that binds human PD-L1, light and heavy chains defined by SEQ ID NOs | – | – | – | – | – | – | – | – | – | – | – | – | – | – | 75.7% | No significant tolerability issues
